Results published in paper doi:10.1101/2020.06.24.169508v1 (biorxiv, 2020).

Tests used:
[1] = molecular target: T1, VhChiP (chitooligosaccharide-specific porin, chitoporin) (Vibrio harveyi, UniProt L0RVU0); assay: biochemical; settings: read-out: WT ΔTm (fluorescence)
T1 sequence (L0RVU0 26-375): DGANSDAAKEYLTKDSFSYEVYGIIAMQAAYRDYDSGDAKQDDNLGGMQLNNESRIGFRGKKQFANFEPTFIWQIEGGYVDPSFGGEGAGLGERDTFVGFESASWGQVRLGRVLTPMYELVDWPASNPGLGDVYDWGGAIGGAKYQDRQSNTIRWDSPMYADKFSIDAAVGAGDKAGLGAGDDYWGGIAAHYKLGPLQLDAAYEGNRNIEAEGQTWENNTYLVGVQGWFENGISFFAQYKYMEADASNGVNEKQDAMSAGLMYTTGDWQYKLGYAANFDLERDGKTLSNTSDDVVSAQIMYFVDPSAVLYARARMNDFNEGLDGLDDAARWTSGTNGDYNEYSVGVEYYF

[2] = molecular target: T1, VhChiP (chitooligosaccharide-specific porin, chitoporin); assay: biochemical; settings: read-out: WT ΔTm (CD)
[3] = molecular target: T1, VhChiP (chitooligosaccharide-specific porin, chitoporin); assay: intrinsic tryptophan fluorescence titration; type: binding; settings: 20 mM phosphate pH 7.4, 0.2% LDAO, 25 °C; one-site fit

SMILES	ΔTm at 1000 µM [1]	ΔTm at 100 µM [2]	K [3]
CC(=O)N[C@H]1[C@H](O[C@H]2[C@H](O)[C@@H](NC(C)=O)C(O)O[C@@H]2CO)O[C@H](CO)[C@@H](O[C@@H]2O[C@H](CO)[C@@H](O)[C@H](O)[C@H]2NC(C)=O)[C@@H]1O (stereo partly shown) [Chitotriose]	4 °C	3.2 °C	0.5 ± 0.03 ×10^5 M^-1
CC(=O)N[C@H]1[C@H](O[C@H]2[C@H](O)[C@@H](NC(C)=O)C(O)O[C@@H]2CO)O[C@H](CO)[C@@H](O)[C@@H]1O (stereo partly shown) [Chitobiose]	4 °C	2.1 °C	0.1 ± 0.04 ×10^5 M^-1
CC(=O)N[C@H]1[C@H](O[C@H]2[C@H](O)[C@@H](NC(C)=O)[C@H](O[C@H]3[C@H](O)[C@@H](NC(C)=O)C(O)O[C@@H]3CO)O[C@@H]2CO)O[C@H](CO)[C@@H](O[C@@H]2O[C@H](CO)[C@@H](O[C@@H]3O[C@H](CO)[C@@H](O)[C@H](O)[C@H]3NC(C)=O)[C@H](O)[C@H]2NC(C)=O)[C@@H]1O (stereo partly shown) [Chitopentaose]	6 °C	5.7 °C	3.8 ± 0.2 ×10^5 M^-1
CC(=O)N[C@H]1[C@H](O[C@H]2[C@H](O)[C@@H](NC(C)=O)C(O)O[C@@H]2CO)O[C@H](CO)[C@@H](O[C@@H]2O[C@H](CO)[C@@H](O[C@@H]3O[C@H](CO)[C@@H](O)[C@H](O)[C@H]3NC(C)=O)[C@H](O)[C@H]2NC(C)=O)[C@@H]1O (stereo partly shown) [Chitotetraose]	5 °C	3.8 °C	1.4 ± 0.01 ×10^5 M^-1

Next, values leading:

ΔTm at 1000 µM [1]	ΔTm at 100 µM [2]	K [3]	SMILES
8 °C	7 °C	13 ± 0.5 ×10^5 M^-1	CC(=O)N[C@H]1[C@H](O[C@H]2[C@H](O)[C@@H](NC(C)=O)[C@H](O[C@H]3[C@H](O)[C@@H](NC(C)=O)C(O)O[C@@H]3CO)O[C@@H]2CO)O[C@H](CO)[C@@H](O[C@@H]2O[C@H](CO)[C@@H](O[C@@H]3O[C@H](CO)[C@@H](O[C@@H]4O[C@H](CO)[C@@H](O)[C@H](O)[C@H]4NC(C)=O)[C@H](O)[C@H]3NC(C)=O)[C@H](O)[C@H]2NC(C)=O)[C@@H]1O (stereo partly shown) [Chitohexaose]
2 °C	–	–	CC(=O)N[C@H]1C(O)O[C@H](CO)[C@@H](O)[C@@H]1O (stereo partly drawn) [D-GlcNAc]
